Data published in ChEMBL document CHEMBL5625206, “Design, synthesis, and evaluation of novel pleuromutilin aryl acrylate derivatives as promising broad-spectrum antibiotics especially for combatting multi-drug resistant gram-negative bacteria” (Eur J Med Chem, 2023).
In brackets after ≈: the same amount, converted by molar mass. Activity calls are given as the source filed them. The rule behind the calls is not given here.

What was measured:
Staphylococcus aureus [1] = assay: Disruption of cell membrane integrity in methicillin-resistant Staphylococcus aureus ATCC 33591 assessed as wrinkled cell surface at MIC incubated for 4 hrs by FESEM analysis; assay type: functional, organism-based
Mycoplasmopsis synoviae = assay: Anti-mycoplasma activity against Mycoplasmopsis synoviae MS-MVU1852-NCTC10124 assessed as bacterial growth inhibition incubated for 7 days; assay type: functional; conditions: MS-MVU1852-NCTC10124, 168 h, time 7 day
[2] = Toxicity in fasted male Sprague-Dawley rat assessed as animal growth rate at 148 mg/kg, IG measured for 14 days (reference value: 46.53 +/- 3.19 g); assay type: organism-based; conditions: in vivo, po, 336 h, time 14 day
[3] = Toxicity in fasted female Sprague-Dawley rat assessed as relative liver weight ratio at 331 mg/kg, IG measured for 14 days (reference value: 3.199 +/- 0.062); assay type: organism-based; conditions: in vivo, po, 336 h, time 14 day
Staphylococcus aureus [4] = assay: Depolarization of cell membrane in methicillin-resistant Staphylococcus aureus ATCC 33591 by DiBAC4(3) probe based analysis; assay type: functional, organism-based
[5] = Toxicity in fasted female Sprague-Dawley rat assessed as relative liver weight ratio at 224 mg/kg, IG measured for 14 days (reference value: 3.199 +/- 0.062); assay type: organism-based; conditions: in vivo, po, 336 h, time 14 day
Escherichia coli [6] = assay: Disruption of cell membrane integrity in Escherichia coli ATCC 25922 at 4 times MIC incubated for 4 hrs by FESEM analysis; assay type: functional, organism-based
[7] = Toxicity in fasted male Sprague-Dawley rat assessed as relative testis weight ratio at 500 mg/kg, IG measured for 14 days (reference value: 0.993 +/- 0.052); assay type: organism-based; conditions: in vivo, po, 336 h, time 14 day
[8] = Toxicity in fasted female Sprague-Dawley rat assessed as body weight at 148 mg/kg, IG measured on same day (reference value: 165.2 +/- 8.1 g); assay type: organism-based; conditions: in vivo, po
[9] = Toxicity in fasted female Sprague-Dawley rat assessed as body weight at 500 mg/kg, IG measured on same day (reference value: 165.2 +/- 8.1 g); assay type: organism-based; conditions: in vivo, po
[10] = Toxicity in fasted female Sprague-Dawley rat assessed as body weight at 331 mg/kg, IG measured on same day (reference value: 165.2 +/- 8.1 g); assay type: organism-based; conditions: in vivo, po
Staphylococcus aureus [11] = assay: Bactericidal activity against methicillin-resistant Staphylococcus aureus ATCC 33591 incubated for 24 hrs by time kill assay; assay type: functional, organism-based
Staphylococcus aureus [12] = assay: Antibacterial activity against methicillin-resistant Staphylococcus aureus ATCC 33591 infected in neutropenic Kunming mouse model assessed as restoration of infection- induced change in cell morphology in lung at 20 mg/kg, ip measured after 7 days; assay type: functional, organism-based; conditions: time 7.0 day
Escherichia coli [13] = assay: Inhibition of biofilm formation of Escherichia coli ATCC 25922 incubated for 24 hrs by crystal violet staining based analysis; assay type: functional, organism-based
Staphylococcus aureus [14] = assay: Disruption of cell membrane integrity in methicillin-resistant Staphylococcus aureus ATCC 33591 assessed as increase in red fluorescence at 1 to 4 times MIC incubated for 2 hrs by MycoLight green JJ98/PI staining based analysis; assay type: functional, organism-based
[15] = Toxicity in fasted male Sprague-Dawley rat assessed as body weight at 100 mg/kg, IG measured after 7 days (reference value: 260.5 +/- 12.7 g); assay type: organism-based; conditions: in vivo, po, 168 h, time 7 day
[16] = Toxicity in fasted female Sprague-Dawley rat assessed as relative heart weight ratio at 148 mg/kg, IG measured for 14 days (reference value: 0.429 +/- 0.016); assay type: organism-based; conditions: in vivo, po, 336 h, time 14 day
[17] = Toxicity in fasted male Sprague-Dawley rat assessed as relative lung weight ratio at 224 mg/kg, IG measured for 14 days (reference value: 0.437 +/- 0.064); assay type: organism-based; conditions: in vivo, po, 336 h, time 14 day
[18] = Toxicity in neutropenic Kunming mouse model infected with methicillin-resistant Staphylococcus aureus ATCC 33591 assessed as survival rate at 10 mg/kg, ip measured after 7 days relative to control; assay type: organism-based; conditions: in vivo, 168 h, time 7 day
[19] = Tmax in fasted Sprague-Dawley rat at 1 mg/kg, iv by LC-MS/MS analysis; assay type: ADME, organism-based; conditions: in vivo
[20] = Toxicity in fasted female Sprague-Dawley rat assessed as relative kidney weight ratio at 331 mg/kg, IG measured for 14 days (reference value: 0.802 +/- 0.031); assay type: organism-based; conditions: in vivo, po, 336 h, time 14 day
Escherichia coli [21] = assay: Disruption of cell membrane integrity in Escherichia coli ATCC 25922 assessed as wrinkled cell surface at MIC incubated for 4 hrs by FESEM analysis; assay type: functional, organism-based
[22] = Cytotoxicity against human A549 cells incubated for 24 hrs by CCK8 assay; assay type: toxicity, cell-based
[23] = Toxicity in fasted male Sprague-Dawley rat assessed as relative spleen weight ratio at 224 mg/kg, IG measured for 14 days (reference value: 0.246 +/- 0.037); assay type: organism-based; conditions: in vivo, po, 336 h, time 14 day
[24] = Toxicity in fasted male Sprague-Dawley rat assessed as relative heart weight ratio at 331 mg/kg, IG measured for 14 days (reference value: 0.396 +/- 0.043); assay type: organism-based; conditions: in vivo, po, 336 h, time 14 day
Staphylococcus aureus [25] = assay: Inhibition of biofilm formation of methicillin-resistant Staphylococcus aureus ATCC 33591 at MIC incubated for 24 hrs by crystal violet staining based analysis relative to control; assay type: functional
[26] = Toxicity in fasted female Sprague-Dawley rat assessed as relative liver weight ratio at 500 mg/kg, IG measured for 14 days (reference value: 3.199 +/- 0.062); assay type: organism-based; conditions: in vivo, po, 336 h, time 14 day
Escherichia coli [27] = assay: Induction of extracellular electrical conductivity in Escherichia coli ATCC 25922 at MIC incubated for 8 hrs relative to control; assay type: functional
Staphylococcus aureus [28] = assay: Antibacterial activity against methicillin-resistant Staphylococcus aureus ATCC 33591 infected in neutropenic Kunming mouse model assessed as bacterial load reduction in lung at 10 to 20 mg/kg, ip measured after 2 days; assay type: functional, organism-based; conditions: dose 10-20 mg/kg, time 2.0 day
[29] = Toxicity in fasted male Sprague-Dawley rat assessed as relative testis weight ratio at 148 mg/kg, IG measured for 14 days (reference value: 0.993 +/- 0.052); assay type: organism-based; conditions: in vivo, po, 336 h, time 14 day
Staphylococcus aureus [30] = assay: Bactericidal activity against methicillin-resistant Staphylococcus aureus ATCC 33591 at 2 to 8 times MIC incubated for 8 to 24 hrs by time kill assay relative to control; assay type: functional; conditions: time 8-24 hrs
Staphylococcus aureus [31] = assay: Antibacterial activity against methicillin-resistant Staphylococcus aureus 171 clinical isolate assessed as bacterial growth inhibition incubated for 24 hrs by CLSI based broth microdilution method; assay type: functional
Escherichia coli [32] = assay: Bactericidal activity against Escherichia coli ATCC 25922 at 4 to 8 times MIC incubated for 8 to 12 hrs by time kill assay relative to control; assay type: functional; conditions: time 8-12 hrs
Staphylococcus aureus [33] = assay: Bactericidal activity against methicillin-resistant Staphylococcus aureus ATCC 33591 at MIC incubated for 24 hrs by time kill assay relative to control; assay type: functional
[34] = Toxicity in fasted male Sprague-Dawley rat assessed as relative heart weight ratio at 500 mg/kg, IG measured for 14 days (reference value: 0.396 +/- 0.043); assay type: organism-based; conditions: in vivo, po, 336 h, time 14 day
Staphylococcus aureus [35] = assay: Antibacterial activity against methicillin-resistant Staphylococcus aureus ATCC 33591 infected in neutropenic Kunming mouse model assessed as reduction in infection-induced kidney damage at 20 mg/kg, ip measured after 7 days; assay type: functional, organism-based; conditions: time 7.0 day
Staphylococcus aureus [36] = assay: Disruption of cell membrane integrity in methicillin-resistant Staphylococcus aureus ATCC 33591 at 4 times MIC incubated for 4 hrs by FESEM analysis; assay type: functional, organism-based

Structure (SMILES): C=C[C@]1(C)C[C@@H](OC(=O)COC(=O)/C=C/c2ccc(N(C)C)cc2)[C@]2(C)[C@H](C)CC[C@]3(CCC(=O)[C@H]32)[C@@H](C)[C@@H]1O
- Activity (Staphylococcus aureus [1]): Active
- MIC (Mycoplasmopsis synoviae): 0.008 µg/mL (≈ 0.0145 µM)
- Activity [2]: 45.63%
- Ratio [3]: 3.171
- Activity (Staphylococcus aureus [4]): Dose-Dependent Effect
- Ratio [5]: 3.197
- Activity (Escherichia coli [6]): Active
- Ratio [7]: 0.956
- Activity [8]: 159.8 g
- Activity [9]: 159.5 g
- Activity [10]: 171.3 g
- Activity (Staphylococcus aureus [11]): Dose-Dependent Effect
- Activity (Staphylococcus aureus [12]): Active
- inhibition (Escherichia coli [13]): Dose-Dependent Effect
- Activity (Staphylococcus aureus [14]): Active
- Activity [15]: 265.5 g
- Ratio [16]: 0.447
- Ratio [17]: 0.411
- Survival [18]: 70%
- Tmax [19]: 4.98 min
- Ratio [20]: 0.832
- Activity (Escherichia coli [21]): Active
- CC50 at 24 h [22]: > 200 µM
- Ratio [23]: 0.229
- Ratio [24]: 0.374
- inhibition (INH) (Staphylococcus aureus [25]): 56.51%
- Ratio [26]: 3.203
- Activity (Escherichia coli [27]): 15.45%
- Activity (Staphylococcus aureus [28]): Active
- Ratio [29]: 0.99
- Activity (Staphylococcus aureus [30]): 100%
- MIC (Staphylococcus aureus [31]): 8 µg/mL (≈ 14.5 µM)
- Activity (Escherichia coli [32]): 100%
- Activity (Staphylococcus aureus [33]): 48.55%
- Ratio [34]: 0.376
- Activity (Staphylococcus aureus [35]): Active
- Activity (Staphylococcus aureus [36]): Active
